From ChEMBL document CHEMBL4295262, “Evaluation of the utility of stem-cell derived cardiomyocytes for drug proarrhythmic potential” (2019)

What was measured:
Conditions in all cases: human, ipsc-cm
[1] = (§1) Electrical activity assay on cell lines treated with a given drug. DMSO was used as a vehicle and a control, unblinded dofetilide was used as a control.; type: ADME, cell-based
[2] = as §1
[3] = as §1; remark: listed apart in the source
[4] = as §1; type: ADME, cell-based; remark: listed apart in the source
[5] = as §1; remark: listed apart in the source
[6] = as §1; remark: listed apart in the source
[7] = 0.003 µM, concentration (um) 0.003 uM
[8] = 0.03 µM, concentration (um) 0.03 uM
[9] = 0.3 µM, concentration (um) 0.3 uM
[10] = 0.001 µM, concentration (um) 0.001 uM
[11] = 0.01 µM, concentration (um) 0.01 uM
[12] = 0.1 µM, concentration (um) 0.1 uM
[13] = 0.03169 µM, concentration (um) 0.0316912 uM
[14] = 0.1001 µM, concentration (um) 0.100144 uM
[15] = 0.3165 µM, concentration (um) 0.316456 uM
[16] = 0.09507 µM, concentration (um) 0.0950736 uM
[17] = 0.3004 µM, concentration (um) 0.300433 uM
[18] = 0.9494 µM, concentration (um) 0.949367 uM

## O=c1[nH]c2ccccc2n1CCCN1CCC(n2c(=O)[nH]c3cc(Cl)ccc32)CC1 [DOMPERIDONE]
[1]; [7]
  FPD measurement: 47.3 FPDc
  FPDc: 6 Values Out Of 6 Were Excluded Due To Quiescence Or 0 Fpdc
[1]; [8]
  FPD measurement: 85.58 FPDc
  FPDc: 6 Values Out Of 6 Were Excluded Due To Quiescence Or 0 Fpdc
[1]; [9]
  FPD measurement: 42.56 FPDc
  FPDc: 6 Values Out Of 6 Were Excluded Due To Quiescence Or 0 Fpdc
[1]; 3 µM, concentration (um) 3 uM
  FPDc: 6 Values Out Of 6 Were Excluded Due To Quiescence Or 0 Fpdc
[2]; 0.003 µM
  FPDc: 73.87
[2]; 0.03 µM
  FPDc: 88.38
[2]; 0.3 µM
  FPDc: More Than Half The Wells Had A Quiescence Event Or Fpdc Readings Of 0
[2]; 3 µM
  FPD measurement: More Than Half The Wells Had A Quiescence Event Or Apdc Readings Of 0
  FPDc: More Than Half The Wells Had A Quiescence Event Or Fpdc Readings Of 0
[3]; 0.003 µM
  APDc: 72.4
  FPD measurement: 72.4 FPDc
[3]; 0.03 µM
  APDc: 67
  FPD measurement: 67 FPDc
[3]; 0.3 µM
  APDc: 78.3
  FPD measurement: 78.3 FPDc
[3]; 3 µM
  APDc: More Than Half The Wells Had A Quiescence Event Or Apdc Readings Of 0
  FPD measurement: More Than Half The Wells Had A Quiescence Event Or Apdc Readings Of 0

## CC(C)(C)c1ccc(C(O)CCCN2CCC(C(O)(c3ccccc3)c3ccccc3)CC2)cc1 (stereo unspecified) [TERFENADINE]
[1]; [10]
  FPD measurement: 48.77 FPDc
  FPDc: 6 Values Out Of 6 Were Excluded Due To Quiescence Or 0 Fpdc
[1]; [11]
  FPD measurement: 52.11 FPDc
  FPDc: 6 Values Out Of 6 Were Excluded Due To Quiescence Or 0 Fpdc
[1]; [12]
  FPD measurement: 71.18 FPDc
  FPDc: 6 Values Out Of 6 Were Excluded Due To Quiescence Or 0 Fpdc
[1]; 1 µM, concentration (um) 1 uM
  FPDc: 6 Values Out Of 6 Were Excluded Due To Quiescence Or 0 Fpdc
[4]; [10]
  FPD measurement: 5 Values Out Of 5 Were Excluded Due To Quiescence Or 0 Apdc
  FPDc: 20.04
[4]; [11]
  FPD measurement: 5 Values Out Of 5 Were Excluded Due To Quiescence Or 0 Apdc
  FPDc: 19.19
[4]; [12]
  FPD measurement: 5 Values Out Of 5 Were Excluded Due To Quiescence Or 0 Apdc
  FPDc: 20.37
[4]; 1 µM, concentration (um) 1 uM
  FPD measurement: 5 Values Out Of 5 Were Excluded Due To Quiescence Or 0 Apdc
  FPDc: 19.11
[2]; 0.001 µM
  FPDc: 67.41
[2]; 0.01 µM
  FPDc: 65.79
[2]; 0.1 µM
  FPDc: 66.77
[2]; 1 µM
  FPDc: 63.51
[5]; 0.001 µM
  FPD measurement: 1 Values Out Of 1 Were Excluded Due To Quiescence Or 0 Fpdc
  FPDc: 1 Values Out Of 1 Were Excluded Due To Quiescence Or 0 Fpdc
[5]; 0.01 µM
  FPD measurement: 1 Values Out Of 1 Were Excluded Due To Quiescence Or 0 Fpdc
  FPDc: 1 Values Out Of 1 Were Excluded Due To Quiescence Or 0 Fpdc
[5]; 0.1 µM
  FPD measurement: 1 Values Out Of 1 Were Excluded Due To Quiescence Or 0 Fpdc
  FPDc: 1 Values Out Of 1 Were Excluded Due To Quiescence Or 0 Fpdc
[5]; 1 µM
  FPD measurement: 1 Values Out Of 1 Were Excluded Due To Quiescence Or 0 Fpdc
  FPDc: 1 Values Out Of 1 Were Excluded Due To Quiescence Or 0 Fpdc

## COC(=O)C1=C(C)NC(C)=C(C(=O)OC)C1c1ccccc1[N+](=O)[O-] [NIFEDIPINE]
[4]; [10]
  FPD measurement: 5 Values Out Of 5 Were Excluded Due To Quiescence Or 0 Apdc
  FPDc: 21.76
[4]; [11]
  FPD measurement: 5 Values Out Of 5 Were Excluded Due To Quiescence Or 0 Apdc
  FPDc: 17.1
[4]; [12]
  FPD measurement: More Than Half The Wells Had A Quiescence Event Or Apdc Readings Of 0
  FPDc: More Than Half The Wells Had A Quiescence Event Or Fpdc Readings Of 0
[4]; 1 µM, concentration (um) 1 uM
  FPD measurement: More Than Half The Wells Had A Quiescence Event Or Apdc Readings Of 0
  FPDc: More Than Half The Wells Had A Quiescence Event Or Fpdc Readings Of 0
[2]; 0.001 µM
  FPDc: 73.26
[2]; 0.01 µM
  FPDc: 70.54
[2]; 0.1 µM
  FPDc: 51.56
[2]; 1 µM
  FPDc: 21.94
[6]; 0.001 µM
  FPD measurement: 50.88 FPDc
  FPDc: 50.88
[6]; 0.01 µM
  FPD measurement: 43.95 FPDc
  FPDc: 43.95
[6]; 0.1 µM
  FPD measurement: 24.94 FPDc
  FPDc: 24.94
[6]; 1 µM
  FPD measurement: 16.23 FPDc
  FPDc: 16.23
[5]; 0.001 µM
  FPD measurement: 1 Values Out Of 1 Were Excluded Due To Quiescence Or 0 Fpdc
  FPDc: 1 Values Out Of 1 Were Excluded Due To Quiescence Or 0 Fpdc
[5]; 0.01 µM
  FPD measurement: 1 Values Out Of 1 Were Excluded Due To Quiescence Or 0 Fpdc
  FPDc: 1 Values Out Of 1 Were Excluded Due To Quiescence Or 0 Fpdc
[5]; 0.1 µM
  FPD measurement: 1 Values Out Of 1 Were Excluded Due To Quiescence Or 0 Fpdc
  FPDc: 1 Values Out Of 1 Were Excluded Due To Quiescence Or 0 Fpdc
[5]; 1 µM
  FPD measurement: 1 Values Out Of 1 Were Excluded Due To Quiescence Or 0 Fpdc
  FPDc: 1 Values Out Of 1 Were Excluded Due To Quiescence Or 0 Fpdc
[3]; 0.001 µM
  APDc: 59.3
  FPD measurement: 59.3 FPDc
[3]; 0.01 µM
  APDc: 57.63
  FPD measurement: 57.63 FPDc
[3]; 0.1 µM
  APDc: More Than Half The Wells Had A Quiescence Event Or Apdc Readings Of 0
  FPD measurement: More Than Half The Wells Had A Quiescence Event Or Apdc Readings Of 0
[3]; 1 µM
  APDc: More Than Half The Wells Had A Quiescence Event Or Apdc Readings Of 0
  FPD measurement: More Than Half The Wells Had A Quiescence Event Or Apdc Readings Of 0

## O=C(CCCN1CC=C(n2c(=O)[nH]c3ccccc32)CC1)c1ccc(F)cc1 [DROPERIDOL]
[1]; [13]
  FPD measurement: 60.21 FPDc
  FPDc: 6 Values Out Of 6 Were Excluded Due To Quiescence Or 0 Fpdc
[1]; [14]
  FPD measurement: 132.5 FPDc
  FPDc: 6 Values Out Of 6 Were Excluded Due To Quiescence Or 0 Fpdc
[1]; [15]
  FPD measurement: 151.8 FPDc
  FPDc: 6 Values Out Of 6 Were Excluded Due To Quiescence Or 0 Fpdc
[1]; 1 µM, concentration (um) 1 uM
  FPD measurement: 41.51 FPDc
  FPDc: 6 Values Out Of 6 Were Excluded Due To Quiescence Or 0 Fpdc
[2]; 0.03169 µM
  FPDc: 71.23
[2]; 0.1001 µM
  FPDc: 90.23
[2]; 0.3165 µM
  FPDc: 123.3
[2]; 1 µM
  FPDc: More Than Half The Wells Had A Quiescence Event Or Fpdc Readings Of 0
[5]; 0.03169 µM
  FPD measurement: 1 Values Out Of 1 Were Excluded Due To Quiescence Or 0 Fpdc
  FPDc: 1 Values Out Of 1 Were Excluded Due To Quiescence Or 0 Fpdc
[5]; 0.1001 µM
  FPD measurement: 1 Values Out Of 1 Were Excluded Due To Quiescence Or 0 Fpdc
  FPDc: 1 Values Out Of 1 Were Excluded Due To Quiescence Or 0 Fpdc
[5]; 0.3165 µM
  FPD measurement: 1 Values Out Of 1 Were Excluded Due To Quiescence Or 0 Fpdc
  FPDc: 1 Values Out Of 1 Were Excluded Due To Quiescence Or 0 Fpdc
[5]; 1 µM
  FPD measurement: 1 Values Out Of 1 Were Excluded Due To Quiescence Or 0 Fpdc
  FPDc: 1 Values Out Of 1 Were Excluded Due To Quiescence Or 0 Fpdc
[3]; 0.03169 µM
  APDc: 57.78
  FPD measurement: 57.78 FPDc
[3]; 0.1001 µM
  APDc: 53.48
  FPD measurement: 53.48 FPDc
[3]; 0.3165 µM
  APDc: 58.08
  FPD measurement: 58.08 FPDc
[3]; 1 µM
  APDc: 67.51
  FPD measurement: 67.51 FPDc

## CN1CCN(C2=Nc3cc(Cl)ccc3Nc3ccccc32)CC1 [CLOZAPINE]
[4]; [16]
  FPD measurement: 5 Values Out Of 5 Were Excluded Due To Quiescence Or 0 Apdc
  FPDc: 25.04
[4]; [17]
  FPD measurement: 5 Values Out Of 5 Were Excluded Due To Quiescence Or 0 Apdc
  FPDc: 24.94
[4]; [18]
  FPD measurement: 5 Values Out Of 5 Were Excluded Due To Quiescence Or 0 Apdc
  FPDc: 25.07
[4]; 3 µM, concentration (um) 3 uM
  FPD measurement: 5 Values Out Of 5 Were Excluded Due To Quiescence Or 0 Apdc
  FPDc: 22.78
[2]; 0.09507 µM
  FPDc: 68.88
[2]; 0.3004 µM
  FPD measurement: 5 Values Out Of 5 Were Excluded Due To Quiescence Or 0 Apdc
  FPDc: 59.23
[2]; 0.9494 µM
  FPD measurement: 5 Values Out Of 5 Were Excluded Due To Quiescence Or 0 Apdc
  FPDc: 63.68
[2]; 3 µM
  FPDc: 65.29
[5]; 0.09507 µM
  FPD measurement: 1 Values Out Of 1 Were Excluded Due To Quiescence Or 0 Fpdc
  FPDc: 1 Values Out Of 1 Were Excluded Due To Quiescence Or 0 Fpdc
[5]; 0.3004 µM
  FPD measurement: 1 Values Out Of 1 Were Excluded Due To Quiescence Or 0 Fpdc
  FPDc: 1 Values Out Of 1 Were Excluded Due To Quiescence Or 0 Fpdc
[5]; 0.9494 µM
  FPD measurement: 1 Values Out Of 1 Were Excluded Due To Quiescence Or 0 Fpdc
  FPDc: 1 Values Out Of 1 Were Excluded Due To Quiescence Or 0 Fpdc
[5]; 3 µM
  FPD measurement: 1 Values Out Of 1 Were Excluded Due To Quiescence Or 0 Fpdc
  FPDc: 1 Values Out Of 1 Were Excluded Due To Quiescence Or 0 Fpdc
[3]; 0.09507 µM
  APDc: 47.87
  FPD measurement: 47.87 FPDc
[3]; 0.3004 µM
  APDc: 55.24
  FPD measurement: 55.24 FPDc
[3]; 0.9494 µM
  APDc: 62.1
  FPD measurement: 62.1 FPDc
[3]; 3 µM
  APDc: 73.69
  FPD measurement: 73.69 FPDc
